Numbers after ± are expanded uncertainties.
Assays:
[1] = Liquid, Closed cell (Static) method
[2] = refractive index (Na D-line) (dimensionless); conditions: 298.15 K; 101.33 kPa; Liquid; Standard Abbe refractometry

SMILES | vapor or sublimation pressure ([1]; 336.67 K) [kPa] | vapor or sublimation pressure ([1]; 350.33 K) [kPa] | vapor or sublimation pressure ([1]; 350.35 K) [kPa] | vapor or sublimation pressure ([1]; 350.41 K) [kPa] | refractive index [2] | vapor or sublimation pressure ([1]; 350.4 K) [kPa] | vapor or sublimation pressure ([1]; 350.36 K) [kPa]
CSC [2-thiapropane] | 232.9 ± 1 | 340.4 ± 1.4 | 340.3 ± 0.9 | 340.4 ± 0.9 | 1.43127 ± 0.00031 |  | 
COC [dimethyl ether] | 1576.5 ± 6.2 |  |  |  |  |  | 
CCO [ethanol] |  |  |  |  | 1.35959 ± 0.00037 | 96.5 ± 0.9 | 
COC(C)=O [methyl ethanoate] |  |  |  |  | 1.3589 ± 0.00036 |  | 196 ± 1

Reference: the NIST ThermoML archive (doi:10.1016/j.fluid.2013.06.044)
